Measured values reported in patent US20030148970A1, “Methods for specifically inhibiting histone deacetylase-4” (priority 2001, published 2003).

Columns and labels:
[1] = system: mammalian HDAC; conditions: Yoshida et al. 1990; cited from earlier work
[2] = system: A549; assay: Cell Death Detection ELISA apoptosis, A549; type: cell-based, human; conditions: 48 Hour Treatment; TSA at 100 ng/ml
Method: (§1) In order to determine the effect of HDAC OSDNs on cell growth and cell death through apoptosis, A549 or T24 cells, MDAmb231 cells, and HMEC cells (ATCC, Manassas, Va.) were treated with HDAC OSDNs as previously described.
(§2) For the apoptosis study, cells were analyzed using the Cell Death Detection ELISA Plus kit (Roche Diagnostic GmBH, Mannheim, Germany) according to the manufacturer's directions. Typically, 10,000 cells were plated in 96-well tissue culture dishes for 2 hours before harvest and lysis. Each sample was analyzed in duplicate. ELISA reading was done using a MR700 plate reader (DYNEX Technology, Ashford, Middlesex, England) at 410 nm. The reference was set at 490 nm.

[3] = system: Bax mRNA; assay: RNase protection assay, Bax in A549; type: cell-based, human; conditions: TSA 250 ng/ml, 16 hours
Method: (§7) As a control, A549 cells were treated by lipofectin with or without TSA (250 ng/ml) treatment for 16 hours. These RNase protection assays were done according to the following procedure. Total RNA from cells was prepared using “RNeasy miniprep kit” from QIAGEN following the manufacturer's manual. Labeled probes used in the protection assays were synthesized using “hStress-1 multiple-probe template sets” from Pharmingen (San Diego, Calif., U.S.A.) according to the manufacturer's instructions. Protection procedures were performed using “RPA II™ Ribonuclease Protection Assay Kit” from Ambion, (Austin, Tx.) following the manufacturer's instructions. Quantitation of the bands from autoradiograms was done by using Cyclone™ Phosphor System (Packard Instruments Co. Inc., Meriden, Conn.).

[4] = system: HMEC; assay: Cell Death Detection ELISA apoptosis, HMEC; type: cell-based, human; conditions: 48 Hour Treatment; TSA at 100 ng/ml; normal cells
Method: as §1, §2

[5] = system: murine erythroleukemia cells; conditions: Yoshida et al. 1987; cited from earlier work
[6] = system: p21 mRNA; assay: RNase protection assay, p21 in A549; type: cell-based, human; conditions: TSA 250 ng/ml, 16 hours
Method: as §7

[7] = system: GADD45 mRNA; assay: RNase protection assay, GADD45 in A549; type: cell-based, human; conditions: TSA 250 ng/ml, 16 hours
Method: as §7

[8] = system: MDAmb231; assay: Cell Death Detection ELISA apoptosis, MDAmb231; type: cell-based, human; conditions: 48 Hour Treatment; TSA at 100 ng/ml
Method: as §1, §2

[9] = system: T24; assay: Cell Death Detection ELISA apoptosis, T24; type: cell-based, human; conditions: 48 Hour Treatment; TSA at 100 ng/ml
Method: as §1, §2

[10] = system: human HDAC-2 protein; assay: Western blot of HDAC-2 protein in A549 cells; type: cell-based; conditions: 50 nM, 48 hours
Method: (§3) OSDN treatment conditions were as previously described.
(§4) Cells were lysed in buffer containing 1% Triton X-100, 0.5% sodium deoxycholate, 5 mM EDTA, 25 mM Tris-HCl, pH 7.5, plus protease inhibitors. Total protein was quantified by the protein assay reagent from Bio-Rad (Hercules, Calif.). 100 ug of total protein was analyzed by SDS-PAGE. Next, total protein was transferred onto a PVDF membrane and probed with various HDAC-specific primary antibodies. Rabbit anti-HDAC-1 (H-51), anti-HDAC-2 (H-54) antibodies (Santa Cruz Biotechnologies, Santa Cruz, Calif.) were used at 1:500 dilution. Rabbit anti-HDAC-3 antibody (Sigma, St. Louis, Mo.) was used at a dilution of 1:1000. Anti-HDAC-4 antibody was prepared as previously described (Wang, S. H. et al., (1999) Mol. Cell. Biol. 19:7816-27), and was used at a dilution of 1:1000. Anti-HDAC-6 antibody was raised by immunizing rabbits with a GST fusion protein containing a fragment of HDAC-6 protein (amino acid #990 to #1216, GenBank Accession No. AAD29048). Rabbit antiserum was tested and found only to react specifically to the human HDAC-6 isoform. HDAC-6 antiserum was used at 1:500 dilution in Western blots to detect HDAC-6 in total cell lysates. Horse Radish Peroxidase conjugated secondary antibody was used at a dilution of 1:5000 to detect primary antibody binding. […]

[11] = system: human HDAC-2 RNA; assay: antisense ODN screen in T24 cells, Northern blot, HDAC-2; type: cell-based; conditions: 100 nM, 24 hours
Method: Twenty-four phosphorothioate ODNs containing sequences complementary to the 5′ or 3′ UTR of the human HDAC-2 gene (GenBank Accession No. U31814) were screened as above. […] HDAC-2 MM was created as a control; compared to the antisense oligo, it contains a 7-base mismatch.
(§5) Briefly, human A549 and/or T24 human bladder carcinoma cells were seeded in 10 cm tissue culture dishes one day prior to oligonucleotide treatment. The cell lines were obtained from the American Type Culture Collection (ATCC) (Manassas, Va.) and were grown under the recommended culture conditions. Before the addition of the oligonucleotides, cells were washed with PBS (phosphate buffered saline). Next, lipofectin transfection reagent (GIBCO BRL Mississauga, Ontario, Calif.), at a concentration of 6.25 μg/ml, was added to serum free OPTIMEM medium (GIBCO BRL, Rockville, Md.), which was then added to the cells. The oligonucleotides to be screened were then added directly to the cells (i.e., one oligonucleotide per plate of cells). Mismatched oligonucleotides were used as controls. The same concentration of oligonucleotide (e.g., 50 nM) was used per plate of cells for each oligonucleotide tested.
(§6) Cells were harvested, and total RNAs were analyzed by Northern blot analysis. Briefly, total RNA was extracted using RNeasy miniprep columns (QIAGEN). […]

[12] = system: human cancer cells; assay: cell growth analysis (trypan blue) and apoptosis, cancer cells; type: cell-based; conditions: 50 nM
Method: as §1, §2
Cells were harvested and cell numbers counted by trypan blue exclusion using a hemocytometer. Percentage of inhibition was calculated as (100-AS cell numbers/control cell numbers)%.

[13] = system: human HDAC-3 protein; assay: Western blot of HDAC-3 protein in A549 cells; type: cell-based; conditions: 50 nM, 48 hours
Method: as §3, §4

[14] = system: human HDAC-3 RNA; assay: antisense ODN screen in T24 cells, Northern blot, HDAC-3; type: cell-based; conditions: 100 nM, 24 hours
Method: Twenty-one phosphorothioate ODNs containing sequences complementary to the 5′ or 3′ UTR of the human HDAC-3 gene (GenBank Accession No. AF039703) were screened as above. […] HDAC-3 MM oligo was created as a control; compared to the antisense oligo, it contains a a 6-base mismatch.
as §5, §6

[15] = system: human HDAC-6 RNA; assay: antisense ODN screen in T24 cells, Northern blot, HDAC-6; type: cell-based; conditions: 100 nM, 24 hours
Method: Thirteen phosphorothloate ODNs containing sequences complementary to the 5′ or 3′ untranslated regions of the human HDAC-6 gene (GenBank Accession No. AJ011972) were screened as above. […] HDAC-6 MM oligo was created as a control; compared to the antisense oligo, it contains a 7-base mismatch.
as §5, §6

[16] = system: human HDAC-6 protein; assay: Western blot of HDAC-6 protein in A549 cells; type: cell-based; conditions: 50 nM, 48 hours
Method: as §3, §4

Compound | inhibition of mammalian HDAC [1] | Apoptosis, A549 [2] | fold induction of transcription, Bax, A549, TSA vs lipofectin [3] [fold] | Apoptosis, HMEC [4] | induction of differentiation in murine erythroleukemia cells [5] | fold induction of transcription, p21, A549, TSA vs lipofectin [6] [fold] | fold induction of transcription, GADD45, A549, TSA vs lipofectin [7] [fold] | Apoptosis, MDAmb231 [8] | Apoptosis, T24 [9] | expression of HDAC-2 protein [10] | antisense activity, HDAC-2 RNA expression [11] | effect on cancer cell growth and apoptosis [12] | expression of HDAC-3 protein [13] | antisense activity, HDAC-3 RNA expression [14] | antisense activity, HDAC-6 RNA expression [15] | expression of HDAC-6 protein [16]
CC(/C=C/C(=O)NO)=C\[C@@H](C)C(=O)c1ccc(N(C)C)cc1 [TSA, (R)-Trichostatin A] | potent inhibitor of mammalian HDAC | ++ (“++”: 3-5× fold) | 0.8 | + (“+”: 2-3× fold) | potent inducer of differentiation | 2.8 | 0.6 | ++ (“++”: 3-5× fold) | ++ (“++”: 3-5× fold) | – | – | – | – | – | – | –
HDAC-2 AS: 5′-GCTGAGCTGTTCTGATTTGG-3′, antisense to human HDAC2 3′-UTR, U31814 (chemistry not given here) | – | − (“−”: <= 2× fold over non-specific background) | – | − (“−”: <= 2× fold over non-specific background) | – | – | – | − (“−”: <= 2× fold over non-specific background) | − (“−”: <= 2× fold over non-specific background) | specifically inhibits the expression of the respective HDAC isotype protein | antisense activity to human HDAC-2 | minimal effect on cancer cell growth inhibition | – | – | – | –
HDAC-3 AS: 5′-CGCTTTCCTTGTCATTGACA-3′, antisense to human HDAC3 3′-UTR, AF039703 (chemistry not given here) | – | − (“−”: <= 2× fold over non-specific background) | – | − (“−”: <= 2× fold over non-specific background) | – | – | – | − (“−”: <= 2× fold over non-specific background) | − (“−”: <= 2× fold over non-specific background) | – | – | no effect on cancer cell growth or apoptosis | specifically inhibits the expression of the respective HDAC isotype protein | antisense activity to human HDAC-3 | – | –
HDAC-6 AS: 5′-CAGGCTGGAATGAGCTACAG-3′, antisense to human HDAC6 3′-UTR, AJ011972 (chemistry not given here) | – | − (“−”: <= 2× fold over non-specific background) | – | − (“−”: <= 2× fold over non-specific background) | – | – | – | − (“−”: <= 2× fold over non-specific background) | − (“−”: <= 2× fold over non-specific background) | – | – | no effect on cancer cell growth or apoptosis | – | – | antisense activity to human HDAC-6 | specifically inhibits the expression of the respective HDAC isotype protein
